Test results from patent US11525165B2, “Method of selection of an IRE1-inhibitor therapy for patient suffering from cancer” (INSERM (INSTITUT NATIONAL DE LA SANTÉ ET DE LA RECHERCHE …, priority 2017, dated 2022).

System: U87 cells
Experiment: miR-17 level under tunicamycin-induced ER stress
Format: cell-based
Details: data not shown
Procedure: U87MG (ATCC) and U251MG (Sigma, St Louis, Mo., USA) cells were authenticated as recommended by AACR (http://aacrjournals.org/content/cell-line-authentication-information) and tested for the absence of mycoplasma using MycoAlert® (Lonza, Basel, Switzerland) or MycoFluor (Invitrogen, Carlsbad, Calif., USA). U87 cells (ATCC) were grown in DMEM glutamax (Invitrogen, Carlsbad, Calif., USA) supplemented with 10% FBS. U87 were stably transfected at MOI=0.3 with pCDH-CMV-MCS-EF1-Puro-copGFP (System biosciences) empty vector (EV), pCDH-CMV-MCS-EF1-Puro-copGFP containing IRE1alpha wild-type sequence (WT) or mutated sequence (P336L, A414T, S769F or Q780*). U87 cells were selected using 2 μg/mL puromycin and polyclonal populations were tested for GFP expression. Transfections of GBM primary cell lines with IRE1 WT and Q780* were performed using Lipofectamine LTX (ThermoFisher Scientific), according to the manufacturer's instructions. For microarray experiments, tunicamycin (purchased from Calbiochem (Merck KGaA, Darmstadt, Germany)) was used at […] for 16 hrs. Actinomycin D were purchased from Sigma-Aldrich (St Louis, Mo., USA) and used as indicated. […]
Total RNA was prepared using the Trizol reagent (Invitrogen, Carlsbad, Calif., USA). Semi-quantitative analyses were carried out as previously described. […]

For tunicamycin, the miR-17 degradation was “led to further miR-17 degradation”.
